Laboratory results taken from US20100041920A1, “NEW SALT FORMS OF AN AMINOINDAN DERIVATIVE” (priority 2008, published 2010).
Counter-ions that a name gives are not always drawn. Like-named read-outs stand apart in the source and are kept apart here.

How the values were obtained:
[1] = for Colour/Aspect 10 months later / Purity (HPLC) 10 months later / XRD result 10 months later: room temperature, ambient atmosphere; for Purity (HPLC) % initial / XRD result Initial: before storage
[2] = Accelerated stability studies of rasagiline salts (40° C. and 75% RH; PE and AL bags); assay type: physicochemical; details: for XRD 1st Month / XRD 2nd Month / Purity (HPLC) 1st Month / Purity (HPLC) 2nd Month: 40° C. and 75% RH; for XRD 1st Month / Purity (HPLC) 1st Month: 1 month; for XRD 2nd Month / Purity (HPLC) 2nd Month: 2 months
Description: Rasagiline salts were submitted to accelerated conditions (40° C. and 75% RH) in two types of bags: polyethylene (PE) and aluminium (AL) bags. The samples were characterized by HPLC, XRD, and visual inspection.

[3] = Flowability studies of rasagiline salts (bulk and tapped density, Hausner ratio); details: for Flowability: flow character by Hausner ratio; for Bulk density: freely settled; for Hausner ratio: tapped bulk density divided by bulk density
[4] = Particle size studies of rasagiline salts (Malvern Mastersizer S); details: particle size by volume, suspended in Isopar G with soybean lecithin
physchem = details: water
Description: The mother liquors were analyzed by HPLC.

[5] = 40° C. and 75% RH for one and two months
[6] = listed as rasagiline besylate Form I
[7] = room temperature, stirred until equilibration, HPLC
[8] = listed as rasagiline succinate Form I

Molecule	Colour/Aspect 10 months later [1]	Purity (HPLC) 10 months later [1] [%]	XRD result 10 months later [1]	Purity (HPLC) % initial [1] [%]	XRD result Initial [1]	stability after ten months of storage (in words) [1]	Purity (HPLC) % initial [2] [%]	XRD Initial [2]	Tapped density [3] [g/mL]	Bulk density [3] [g/mL]	D(v, 0.1) [4] [μm]	D(v, 0.5) [4] [μm]	D(v, 0.9) [4] [μm]	also measured
C#CCN[C@@H]1CCc2ccccc21.O=C(O)[C@H]1OC(O)[C@H](O)[C@@H](O)[C@@H]1O [D-Glucuronate, rasagiline D-glucuronate]	brown oil	50.64	amorphous	86.00	amorphous	highly stable in terms of polymorphic form	–	–	–	–	–	–	–	–
C#CCN[C@@H]1CCc2ccccc21.O=C(O)[C@@H](O)[C@H](O)[C@H](O)[C@@H](O)C(=O)O [Galactarate, rasagiline galactarate]	–	98.81	–	98.92	–	stable in terms of chemical purity and of polymorphic form	–	–	–	–	–	–	–	–
C#CCN[C@@H]1CCc2ccccc21.O=C(O)[C@H](O)[C@@H](O)[C@H](O)[C@H](O)CO [Gluconate, rasagiline gluconate]	brown oil	96.36	amorphous	98.61	amorphous	–	–	–	–	–	–	–	–	–
C#CCN[C@@H]1CCc2ccccc21.C#CCN[C@@H]1CCc2ccccc21.O=C(O)C(O)C(O)C(=O)O [Hemitartrate Form I, rasagiline L-hemitartrate]	white powder	98.86	Form I	99.14	Form I	highly stable in terms of visual aspect, chemical purity and of polymorphic form	99.27	Form I	0.181	0.138	4.5	18.3	78.8	stability under accelerated stability conditions (in words) [2, 5]: highly stable in terms of visual aspect, chemical purity and of polymorphic form; Flowability [3]: Passable (1.26-1.34); Flowability ([3]; listed as rasagiline L-hemitartrate Form I): passable; Flowability ([3]; listed as rasagiline L-hemitartrate salt Form I): excellent
C#CCN[C@@H]1CCc2ccccc21 [Hydrochloride Form II, rasagiline hydrochloride]	–	–	–	–	–	–	>99.9	Form II	0.673	0.673	41.7	99.6	185.2	stability under accelerated stability conditions (in words) [2, 5]: highly stable in terms of visual aspect, chemical purity and of polymorphic form; XRD 1st Month ([2]; AL bag): Form II; XRD 2nd Month ([2]; AL bag): Form II; XRD 1st Month ([2]; PE bag): Form II; XRD 2nd Month ([2]; PE bag): Form II; Purity (HPLC) 1st Month ([2]; aluminium (AL) bag): >99.9%; Purity (HPLC) 2nd Month ([2]; aluminium (AL) bag): >99.9%; Purity (HPLC) 1st Month ([2]; polyethylene (PE) bag): >99.9%; Purity (HPLC) 2nd Month ([2]; polyethylene (PE) bag): >99.9%; Flowability ([3]; hydrochloride): Excellent (1.00-1.11); Flowability ([3]; listed as rasagiline hydrochloride Form II, hydrochloride): excellent; Flowability ([3]; listed as rasagiline hydrochloride salt Form II, hydrochloride): excellent; Solubility (physchem; thermodynamic from solid): ~400 mg/mL
C#CCN[C@@H]1CCc2ccccc21 [Hydrochloride, rasagiline hydrochloride]	white powder	99.74	Form I	99.18	Form I	highly stable in terms of chemical purity and of polymorphic form	–	–	–	–	–	–	–	–
C#CCN[C@@H]1CCc2ccccc21.CS(=O)(=O)O [Mesylate, R-(+)-N-propargyl-1-aminoindan mesylate, reference compound]	white powder	99.8	Form I	99.58	Form I	–	–	–	0.407	0.236	–	–	–	Flowability ([3]; listed as rasagiline mesylate, mesylate): very, very poor; Flowability ([3]; mesylate): Very, very poor (>1.60)
rasagiline besylate [Besylate Form I]	–	–	–	–	–	–	>99.9	Form I	0.435	0.427	6.5	28.8	50.6	stability under accelerated stability conditions (in words) ([2]; 40° C. and 75% RH for one month): stable in terms of chemical purity and of polymorphic form; XRD 1st Month ([2]; AL bag): Form I; Purity (HPLC) 1st Month ([2]; aluminium (AL) bag): >99.9%; Purity (HPLC) 1st Month ([2]; polyethylene (PE) bag): >99.9%; Flowability [3]: Excellent (1.00-1.11); Flowability [3, 6]: excellent; Flowability ([3]; listed as rasagiline besylate salt Form I): excellent; Hausner ratio [3]: 1.02; Hausner ratio [3, 6]: 1.00; Descriptive term (solubility) (physchem; room temperature): Freely soluble; Solubility (physchem; [7]): >800 mg/mL; Solubility (physchem; room temperature, stirred until equilibration, HPLC, listed as rasagiline besylate Form I): > 800 mg/mL; Descriptive term (solubility) (physchem; room temperature, listed as rasagiline besylate Form I): freely soluble
rasagiline fumarate	–	53.64	–	59.56	Form I	–	–	–	–	–	–	–	–	–
rasagiline maleate	white powder	63.27	–	66.54	Form I	–	–	–	–	–	–	–	–	–
rasagiline phosphate	white powder	99.60	–	98.45	amorphous	–	–	–	–	–	–	–	–	–
rasagiline succinate [Succinate Form I]	–	99.61	Form I	99.29	Form I	highly stable in terms of visual aspect, chemical purity and of polymorphic form	>99.9	Form I	0.513	0.492	23.6	85.1	180.4	stability under accelerated stability conditions (in words) [2, 5]: highly stable in terms of visual aspect, chemical purity and of polymorphic form; XRD 1st Month ([2]; AL bag): Form I; XRD 2nd Month ([2]; AL bag): Form I; XRD 1st Month ([2]; PE bag): Form I; XRD 2nd Month ([2]; PE bag): Form I; Purity (HPLC) 1st Month ([2]; aluminium (AL) bag): >99.9%; Purity (HPLC) 2nd Month ([2]; aluminium (AL) bag): 99.92%; Purity (HPLC) 1st Month ([2]; polyethylene (PE) bag): >99.9%; Purity (HPLC) 2nd Month ([2]; polyethylene (PE) bag): 99.92%; Flowability [3]: Excellent (1.00-1.11); Flowability [3, 8]: excellent; Flowability ([3]; listed as rasagiline succinate salt Form I): excellent; Hausner ratio [3]: 1.04; Hausner ratio [3, 8]: about 1.04; Descriptive term (solubility) (physchem; room temperature): Very soluble; Solubility (physchem; [7]): >1200 mg/mL; Solubility (physchem; room temperature, stirred until equilibration, HPLC, listed as rasagiline succinate Form I): > 1200 mg/mL; Descriptive term (solubility) (physchem; room temperature, listed as rasagiline succinate Form I): very soluble
rasagiline tosylate	–	75.89	Form I	79.87	Form I	highly stable in terms of polymorphic form	–	–	–	–	–	–	–	–
